Reference: ChEMBL document CHEMBL1158100, “Sesquiterpenes from Thapsia nitida var. meridionalis and Thapsia nitida var. nitida” (J Nat Prod, 2006)
Active and inactive are the calls of the source. The rule behind the calls is not given here.

Tests used:
[1] = Inhibition of sarcoplasmic/endoplasmic reticulum calcium ATPase at upto 100 uM
[2] = Inhibition of sarcoplasmic/endoplasmic reticulum calcium ATPase at upto 10 uM

Activity [1] | Activity [2] | Structure (SMILES)
inactive | – | C=C1C(=O)O[C@@H]2[C@H]1CC[C@]1(C)[C@@H]3O[C@@H]3[C@H](OC(=O)CC(C)C)C(=C)[C@@H]21
inactive | inactive | C=C1C(=O)O[C@@H]2[C@H]1CC[C@]1(C)[C@@H]3O[C@@H]3[C@H](OC(=O)C=C(C)C)C(=C)[C@@H]21
inactive | – | C=C1CC[C@@H]2[C@@H](OC(=O)[C@@]2(C)OC(=O)/C(C)=C\C)[C@@H]2C(C)=CC[C@H]12
inactive | – | C/C=C(/C)C(=O)O[C@]1(C)C(=O)O[C@H]2[C@@H]3C(C)=CC[C@@H]3[C@@](C)(O)CC[C@H]21
inactive | – | C=C1CC[C@@H]2[C@@H](OC(=O)[C@@]2(C)OC(=O)/C(C)=C/C)[C@H]2[C@@H]1C[C@@H](OC(C)=O)[C@@]2(C)O
inactive | – | C=C1CC[C@@H]2[C@@H](OC(=O)[C@@]2(C)OC(=O)/C(C)=C\C)[C@H]2[C@@H]1C[C@@H](OC(C)=O)[C@@]2(C)O
